Here are results for one compound from patent US8557737B2, “Methods of altering poppy characteristics” (priority 2005, dated 2013).

The subject of assay [1] is poppy crops. The assay can be described thus: Example 10: field trial, triasulfuron and metsulfuron-methyl, morphine crop. Conditions: COMPOUND 1 120 MG/HA + PULSE .2 % V/V at GC, RU and BE. The class given is in vivo, Papaver somniferum. Here is the method: (§1) All trials were conducted on poppy crops. Seed was treated with Thiram (5.6 g of Thiram 800/kg seed) and Apron (4 g/kg) and sown at a rate of approximately 750 g/ha. Fertilisers were applied at sowing. Most commonly, either 50:50 lime:superphosphate/triple superphosphate at 125 kg/ha, or lime:superphosphate at 250 kg/ha, were mixed with seed and drilled at a depth of 15 mm. In the same operation, NPK (nitrogen:phosphorus:potassium), at various rates, was banded 75 mm below the seed, unless otherwise stated. All crops were subjected to herbicide sprays for weed control, fungicide sprays for disease control, insecticide sprays if appropriate and were irrigated as required.
(§2) All spray applications were made with a precision sprayer, using Silvan Lurmark flat-fan, low-drift nozzles (LD110-0015). Spray equipment was calibrated to deliver 153 L water/ha.
(§3) At harvest, a 2 m×4 m quadrat was placed in each plot (3 m×6 m, unless otherwise stated) and capsules hand-picked from this area. Capsules were broken up, seed and capsule material separated and weighed. Capsule moisture readings were taken with a moisture meter. Alkaloid yield data were calculated on Pesticide Research Manager (version 5 for Windows) using the formulae below. Briefly, capsule weight was adjusted for moisture to a dry weight, 5% of seed weight was added to this (this amount of capsule material regularly occurs in seed samples after processing) to give a capsule weight per plot. Seed weight was adjusted to 95% of crude weight. Straw weights were determined by multiplying dry capsule weight by 1.3 (estimated amount of stem material in a commercial harvest) and adjusted to 11% moisture. When Lontrel was applied to crops exact capsule and seed weight data were entered. Analyses of variance and a Multiple Range Test were performed on data using Pesticide Research Manager. Significant differences (P=0.05) between treatments are denoted by different lower case letters adjacent to treatment means in the tables of results.
[…] Treatment sprays were applied to crop at ground cover, mid run-up and bud-emergence, respectively.

Assay [2] concerns poppy crops. The assay can be described thus: Example 13: field trial, metsulfuron-methyl, Lontrel and metsulfuron-methyl+Lontrel, morphine crop. It is filed as in vivo, Papaver somniferum. The settings on record: Trt 3: COMPOUND 1 120 MG/HA + PULSE .2% V/V at RC, ERU and LRU. On the procedure:
as §1, §2, §3
Trial to evaluate applications of metsulfuron-methyl (Compound 1), Lontrel and metsulfuron-methyl+Lontrel, in a morphine crop. Treatment sprays were applied to crop at row cover, early run-up and late run-up. Plant heights were measured at green capsule stage. Lodging was assessed at harvest.

As for `COC(=O)c1ccccc1S(=O)(=O)NC(=O)Nc1nc(C)nc(OC)n1` [Compound 1, metsulfuron-methyl], in assay [1], the “CAPSULE/SEED RATIO” value came out at 11.957 a, the “CROP WEIGHT” value worked out at 1.86 a t/ha, the HEIGHT came to 84.2 b cm and the MORPHINE is recorded as 39.63 a kg/ha. Besides, in assay [1], the SEED stood at 105 c kg/ha, the STRAW was 1757 a kg/ha and the “STRAW MORPHINE” value is listed as 2.25 a %. Besides, in assay [2], the “CAPS/SEED RATIO” value turned out to be 3.431 a, the “CROP WEIGHT” value is listed as 3.11 b t/ha, the MORPHINE is reported as 50.81 a kg/ha and the SEED turned out to be 582 c kg/ha. Besides, in assay [2], the STRAW came to 2530 a kg/ha and the “STRAW MORPHINE” value worked out at 2.01 a %. Besides, in assay [2] (assessed at harvest), the LODGING turned out to be 2.2 b %. In assay [2] (height at green capsule stage), the HEIGHT stood at 95.8 b cm.
